Key:
[1] = test system: human colon carcinoma cell line HT29; assay: Survival study in HT29 colon cancer xenograft mouse model; assay type: in vivo, SCID mice; conditions: Paclitaxel 40 mg/kg, IP on day 4 post tumor cell implantation
Procedure: PACLIMER was provided as in powder and suspended in the vehicle (0.1% Tween80 in normal saline) just before administration. Paclitaxel was purchased from Bristol-Myers Squib Co., which was provided as a solution at a concentration of 6 mg/ml. The paclitaxel solution was diluted to 1 mg/ml with 0.9% sodium chloride just before use.
The human colon carcinoma cell line HT29 was used to set up the colon cancer xenograft mouse model. SCID mice were injected i.p. with 10 million cells. This generally results in death from the tumor metastasis and ascites around 30 days after tumor implantation. HT29 cells growing as a monolayer were harvested with trypsin and washed with PBS. The packed cells were resuspended in PBS (10 million cells per ml PBS). 48 SCID mice (C.B.17/Icr SCID, 8-10 weeks of age) were injected i.p. with 1 ml of the HT29 cell suspension (10 million cells for each mouse). 4 days after tumor implantation, the animals were grouped randomly. […]
For the ascites study, PACLIMER was to be given when obvious ascites was found in the mice. […] On 1, 5, and 10 days after treatment, 4 mice in each group was sacrificed at each time point and the ascites volumes were measured. […]

[2] = test system: malignant effusions associated with non-small cell lung cancer; conditions: cited from earlier work
[3] = single 125 mg/m2 dose diluted in saline, intracavitary

What does the source list for `CC(=O)O[C@H]1C(=O)[C@@]2(C)[C@H]([C@H](OC(=O)c3ccccc3)[C@]3(O)C[C@H](OC(=O)[C@H](O)[C@@H](NC(=O)c4ccccc4)c4ccccc4)C(C)=C1C3(C)C)[C@]1(OC(C)=O)CO[C@@H]1C[C@@H]2O` [Paclitaxel, paclitaxel]?
Median Survival [1]: 44 days; complete response rate [2, 3]: 28.6%; total response rate [2, 3]: 92.9%; patients with total tumor mass reduced by more than 50% ([2]; single 125 mg/m2 dose, following the treatment): one patient out of fourteen

From US20020141966A1, “Compositions for treatment of malignant effusions, and methods of making and using the same” (priority 2000, published 2002)
